Results taken from patent US7138361B2, “Herbicidal heterocycles” (E. I. du Pont de Nemours and Company, priority 2000, dated 2006).

Legend:
Type in all cases: in vivo
[1] = tested on: giant foxtail (Setaria faberii); test: Test C preemergence
Excerpt: (§1) Seeds of plant species selected from bermudagrass (Cynodon dactylon), Surinam grass (Brachiaria decumbens), cocklebur (Xanthium strumarium), corn (Zea mays), crabgrass (Digitaria sanguinalis), woolly cupgrass (Eriochloa villosa), giant foxtail (Setaria faberii), goosegrass (Eleusine indica), johnsongrass (Sorghum halepense), kochia (Kochia scoparia), lambsquarters (Chenopodium album), morningglory (Ipomoea hederacea), yellow nutsedge (Cyperus esculentus), pigweed (Amaranthus retroflexus), common ragweed (Ambrosia elatior), soybean (Glycine max) and velvetleaf (Abutilon theophrasti) were planted and treated preemergence with test chemicals formulated in a non-phytotoxic solvent mixture which included a surfactant.
(§2) At the same time, plants selected from these crop and weed species and also winter barley (Hordeum vulgare), blackgrass (Alopecurus myosuroides), canary grass (Phalaris minor), chickweed (Stellaria media), downy brome (Bromus tectorum), green foxtail (Setaria viridis), Italian ryegrass (Lolium multiflorum), wheat (Triticum aestivum), wild oat (Avena fatua) and windgrass (Apera spica-venti) were treated with postemergence applications of some of the test chemicals formulated in the same manner. Plants ranged in height from 2 to 18 cm (1- to 4-leaf stage) for postemergence treatments. Plant species in the flooded paddy test consisted of rice (Oryza saliva), smallflower flatsedge (Cyperus difformis), duck salad (Heteranthera limosa) and barnyardgrass (Echinochloa crus-galli) grown to the 2-leaf stage for testing. Treated plants and controls were maintained in a greenhouse for 12 to 14 days, after which time all species were compared to controls and visually evaluated. Plant response ratings, summarized in Table C, are based on a scale of 0 to 100 where 0 is no effect and 100 is complete control. A dash (-) response means no test result.

[2] = tested on: kochia (Kochia scoparia); test: Test C preemergence
Excerpt: as §1, §2

[3] = tested on: bermudagrass (Cynodon dactylon); test: Test C preemergence
Excerpt: as §1, §2

[4] = tested on: Surinam grass (Brachiaria decumbens); test: Test C preemergence
Excerpt: as §1, §2

[5] = tested on: johnsongrass (Sorghum halepense); test: Test C preemergence
Excerpt: as §1, §2

[6] = tested on: lambsquarters (Chenopodium album); test: Test C preemergence
Excerpt: as §1, §2

[7] = tested on: morningglory (Ipomoea hederacea); test: Test C preemergence
Excerpt: as §1, §2

[8] = tested on: Nightshade; test: Test C preemergence
Excerpt: as §1, §2

[9] = tested on: common ragweed (Ambrosia elatior); test: Test C preemergence
Excerpt: as §1, §2

[10] = tested on: goosegrass (Eleusine indica); test: Test C preemergence
Excerpt: as §1, §2

[11] = tested on: velvetleaf (Abutilon theophrasti); test: Test C preemergence
Excerpt: as §1, §2

[12] = tested on: crabgrass (Digitaria sanguinalis); test: Test C preemergence
Excerpt: as §1, §2

[13] = tested on: cocklebur (Xanthium strumarium); test: Test C preemergence
Excerpt: as §1, §2

[14] = tested on: yellow nutsedge (Cyperus esculentus); test: Test C preemergence
Excerpt: as §1, §2

[15] = tested on: Sunflower; test: Test C preemergence; settings: Rate 125 g/ha; scale 0 to 100, 0 no effect, 100 complete control
Excerpt: as §1, §2

[16] = tested on: pigweed (Amaranthus retroflexus); test: Test C preemergence
Excerpt: as §1, §2

[17] = tested on: woolly cupgrass (Eriochloa villosa); test: Test C preemergence
Excerpt: as §1, §2

[18] = tested on: soybean (Glycine max); test: Test C preemergence
Excerpt: as §1, §2

[19] = tested on: corn (Zea mays); test: Test C preemergence
Excerpt: as §1, §2

[20] = tested on: barnyardgrass (Echinochloa crus-galli); test: Test C flooded paddy test; settings: for Barnyardgrass plant response rating: Flooded Paddy, scale 0 to 100, 0 no effect, 100 complete control; for Plant response rating, Barnyardgrass: flooded paddy test, scale 0 to 100 (0 no effect, 100 complete control)
Summary of the method: (§3)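 Flooded paddy, 2-leaf stage at treatment. Readout: visual % control vs untreated, 0–100, at 12–14 d in greenhouse.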

[21] = tested on: rice (Oryza saliva); test: Test C flooded paddy test; settings: for Rice plant response rating: Flooded Paddy, scale 0 to 100, 0 no effect, 100 complete control; for Plant response rating, Rice: flooded paddy test, scale 0 to 100 (0 no effect, 100 complete control)
Summary of the method: as §3

[22] = Rate 125 g/ha, scale 0 to 100, 0 no effect, 100 complete control
[23] = preemergence, Rate 31 g/ha, scale 0 to 100
[24] = preemergence, Rate 62 g/ha, scale 0 to 100
[25] = preemergence, Rate 250 g/ha, scale 0 to 100, 0 no effect, 100 complete control

Cc1ccc(N2CCC(n3ccc(C(C)(C)C)n3)C2=O)cc1OCCCl (stereo not drawn) [Compound 109]
20: Plant response rating, Foxtail, Giant [1, 22] | Plant response rating, Pigweed [16, 23] | Plant response rating, Pigweed [16, 24] | Plant response rating, Soybean [18, 23] | Rice plant response rating ([21]; Rate 500 g/ha)
10: Plant response rating, Johnsongrass [5, 24] | Plant response rating, Ragweed, Common [9, 23] | Plant response rating, Cupgrass, Woolly [17, 23]
90: Plant response rating, Foxtail, Giant [1, 25] | Plant response rating, Kochia [2, 23] | Plant response rating, Surinam grass [4, 25] | Plant response rating, Morningglory [7, 24] | Plant response rating, Nightshade ([8]; Rate 62 g/ha, scale 0 to 100) | Plant response rating, Ragweed, Common [9, 24] | Plant response rating, Goosegrass [10, 23] | Plant response rating, Sunflower [15] | Plant response rating, Cupgrass, Woolly [17, 22] | Plant response rating, Cupgrass, Woolly [17, 24] | Plant response rating, Soybean [18, 22] | Plant response rating, Soybean [18, 25] | Barnyardgrass plant response rating ([20]; Rate 500 g/ha)
50: Plant response rating, Johnsongrass [5, 22] | Plant response rating, Johnsongrass [5, 25] | Plant response rating, Nightshade ([8]; Rate 31 g/ha, scale 0 to 100) | Plant response rating, Velvetleaf [11, 23]
70: Plant response rating, Pigweed [16, 22] | Barnyardgrass plant response rating ([20]; Rate 250 g/ha)
0: Plant response rating, Foxtail, Giant [1, 23] | Plant response rating, Foxtail, Giant [1, 24] | Plant response rating, Surinam grass [4, 23] | Plant response rating, Surinam grass [4, 24] | Plant response rating, Johnsongrass [5, 23] | Plant response rating, Cocklebur [13, 23] | Plant response rating, Cocklebur [13, 24] | Plant response rating, Nutsedge [14, 22] | Plant response rating, Nutsedge [14, 23] | Plant response rating, Nutsedge [14, 24] | Plant response rating, Nutsedge [14, 25] | Plant response rating, Corn [19, 22] | Plant response rating, Corn [19, 23] | Plant response rating, Corn [19, 24] | Plant response rating, Corn [19, 25] | Plant response rating, Barnyardgrass ([20]; Rate 62 g/ha) | Plant response rating, Barnyardgrass ([20]; Rate 125 g/ha) | Rice plant response rating ([21]; Rate 250 g/ha) | Plant response rating, Rice ([21]; Rate 62 g/ha) | Plant response rating, Rice ([21]; Rate 125 g/ha)
100: Plant response rating, Kochia [2, 22] | Plant response rating, Kochia [2, 24] | Plant response rating, Kochia [2, 25] | Plant response rating, Bermudagrass [3, 22] | Plant response rating, Bermudagrass [3, 23] | Plant response rating, Bermudagrass [3, 24] | Plant response rating, Bermudagrass [3, 25] | Plant response rating, Lambsquarters [6, 22] | Plant response rating, Lambsquarters [6, 23] | Plant response rating, Lambsquarters [6, 24] | Plant response rating, Lambsquarters [6, 25] | Plant response rating, Morningglory [7, 22] | Plant response rating, Morningglory [7, 25] | Plant response rating, Nightshade [8, 22] | Plant response rating, Nightshade ([8]; Rate 250 g/ha, scale 0 to 100, 0 no effect, 100 complete control) | Plant response rating, Ragweed, Common [9, 22] | Plant response rating, Ragweed, Common [9, 25] | Plant response rating, Goosegrass [10, 22] | Plant response rating, Goosegrass [10, 24] | Plant response rating, Goosegrass [10, 25] | Plant response rating, Velvetleaf [11, 22] | Plant response rating, Velvetleaf [11, 24] | Plant response rating, Velvetleaf [11, 25] | Plant response rating, Crabgrass [12, 22] | Plant response rating, Crabgrass [12, 23] | Plant response rating, Crabgrass [12, 24] | Plant response rating, Crabgrass [12, 25] | Plant response rating, Cupgrass, Woolly [17, 25]
30: Plant response rating, Morningglory [7, 23] | Plant response rating, Cocklebur [13, 22] | Plant response rating, Cocklebur [13, 25]
80: Plant response rating, Surinam grass [4, 22] | Plant response rating, Pigweed [16, 25] | Plant response rating, Soybean [18, 24]
